Usually IC50 stands for the concentration needed to halve the response being measured. As a reminder, the EC50 is the concentration giving half of the maximal effect.

The target in assay [1] is recombinant SARS-CoV-2 Main protease (Mpro) (Severe acute respiratory syndrome coronavirus 2 (2019-nCoV) (SARS-CoV-2), UniProt P0DTD1). In words: Cov Mpro Biochemical IC50 Assay. The following applies: read-out: MPro IC50.
In the next assay the test system is SARS-CoV-2-NLuc. Kind of assay: microbe, parasite or virus in culture. In kind it is cell-based, SARS Coronavirus 2.
Setting [2] is: recombinant SARS-CoV-2 Mpro 7.5 nM, fluorogenic peptide substrate 40 μM.
Setting [3] is: Severe acute respiratory syndrome coronavirus, 48 h, read-out: MPro EC50.
[4] abbreviates: recombinant SARS-CoV-2 Mpro, fluorogenic peptide substrate.
Where [5] appears, read: Severe acute respiratory syndrome coronavirus, 48 h; read-out: MPro EC50.

Where two headings read alike, the source gives them in different places. Where only a bound is given, the exact number is not on record here.

For `COc1ccc(Cl)c(-c2cc3[nH]c(=O)n(-c4cncc5cc(C(C)(C)O)sc45)c(=O)c3s2)c1` [Example 512, 6-(2-chloro-5-methoxy-phenyl)-3-[2-(1-hydroxy-1-methyl-ethyl)thieno[3,2-c]pyridin-7-yl]-1H-thieno[3,2-d]pyrimidine-2,4-dione], the IC50 in assay [1] (setting [2]) is 5.71 nM. In addition, in the assay on SARS-CoV-2-NLuc (setting [3]), the concentration giving a half-maximal response (EC50) turned out to be 26.9 nM.
As to `O=c1[nH]c2cc(-c3c(Cl)ccc4c3OCO4)ccc2c(=O)n1-c1cncc2ccccc12` [Example 172], the half-maximal inhibitory concentration (IC50) in assay [1] (setting [4]) was 159 nM. Besides, the half-maximal effective concentration (EC50) in the assay on SARS-CoV-2-NLuc (setting [3]) is 75.8 nM.
On to `COc1cc(-c2cc3[nH]c(=O)n(-c4cncc5ccccc45)c(=O)c3s2)ccc1F` [Example 469, 6-(4-fluoro-3-methoxy-phenyl)-3-(4-isoquinolyl)-1H-thieno[3,2-d]pyrimidine-2,4-dione], for which, in assay [1] (setting [2]), the concentration for half-maximal inhibition (IC50) came to 276 nM. Moreover, in the assay with SARS-CoV-2-NLuc (setting [3]), the EC50 stood at 334 nM.
For `COc1ccc(Cl)c(-c2cc3[nH]c(=O)n(-c4cncc5nn(CC(F)(F)F)cc45)c(=O)c3s2)c1` [Example 501], the half-inhibitory concentration (IC50) in assay [1] (setting [2]) worked out at 14.8 nM. Further, the 50% effective concentration (EC50) in the assay with SARS-CoV-2-NLuc (setting [5]) was determined as 93.9 nM.
As to `COc1ccc(C#N)c(-c2cc3[nH]c(=O)n(-c4cncc5ccccc45)c(=O)c3s2)c1` [Example 532, 2-(3-(isoquinolin-4-yl)-2,4-dioxo-1,2,3,4-tetrahydrothieno[3,2-d]pyrimidin-6-yl)-4-methoxybenzonitrile], in assay [1] (setting [2]), the half-maximal inhibitory concentration (IC50) is less than 2.65 nM. Further, the concentration giving a half-maximal response (EC50) with SARS-CoV-2-NLuc (setting [3]) is 17.4 nM.
In the same order, the values of `COc1cc(-c2cc3c(s2)c(=O)n(-c2cncc4nn(CC(F)(F)F)c(C)c24)c(=O)n3CCC#N)c(Cl)cc1F` [Example 918] are 24.3 nM and 43.1 nM.
For `CC(=O)NCCn1c(=O)n(-c2cncc(C3CC3)c2)c(=O)c2sc(-c3ccccc3Cl)cc21` [Example 620], in assay [1] (setting [2]), the IC50 amounted to 281 nM. Moreover, in the assay with SARS-CoV-2-NLuc (setting [3]), the EC50 amounted to 759 nM.
Consider `O=c1[nH]c2cc(-c3ccsc3Cl)ccc2c(=O)n1-c1cncc2ccccc12` [Example 84], for which the IC50 in assay [1] (setting [4]) turned out to be 604 nM. In addition, in the assay with SARS-CoV-2-NLuc (setting [3]), the EC50 stood at 1030 nM.
For the compound `COc1cc(-c2cc3[nH]c(=O)n(-c4cncc5c4OCCC5)c(=O)c3s2)c(Cl)cc1F` [Example 1079], the half-inhibitory concentration (IC50) in assay [1] (setting [2]) was 10.3 nM. For the same compound, the EC50 with SARS-CoV-2-NLuc (setting [3]) worked out at 9.56 nM.
In the same order, the values of `COc1ccc(Cl)c(-c2cc3[nH]c(=O)n(-c4cncc5cccc(F)c45)c(=O)c3s2)c1` [Example 445] are 5.71 nM and 22 nM.
In the same order, the values of `COc1ccc(Cl)c(-c2cc3[nH]c(=O)n(-c4cncc5cn(CC(F)(F)F)nc45)c(=O)c3s2)c1` [Example 502] are less than 2.54 nM and 34.8 nM.
Consider `O=c1[nH]c2cc(-c3c(Cl)cccc3-c3cncc(F)c3)ccc2c(=O)n1-c1cncc2ccccc12` [Example 207], for which the IC50 in assay [1] (setting [4]) came to 17.6 nM. For the same compound, in the assay with SARS-CoV-2-NLuc (setting [3]), the EC50 stood at 13.6 nM.
For `COc1cc(-c2cc3c(s2)c(=O)n(-c2cncc4nnn(C(C)C)c24)c(=O)n3CCC#N)c(Cl)cc1F` [Example 991], in assay [1] (setting [2]), the 50% inhibitory concentration (IC50) is 16 nM. For the same compound, the EC50 with SARS-CoV-2-NLuc (setting [3]) was 49.8 nM.
As for `COc1ccc(Cl)c(-c2cc3[nH]c(=O)n(-c4cncc5ccccc45)c(=O)c3cc2OC)c1` [Example 309], the IC50 in assay [1] (setting [4]) is 56.9 nM. For the same compound, the concentration giving a half-maximal response (EC50) with SARS-CoV-2-NLuc (setting [3]) is 26.7 nM.
Take `COc1ncc(-c2cccc(Cl)c2-c2ccc3c(=O)n(-c4cncc5ccccc45)c(=O)[nH]c3c2)cc1C#N` [Example 186]: in assay [1] (setting [4]), the IC50 came out at 112 nM. For the same compound, the EC50 in the assay on SARS-CoV-2-NLuc (setting [3]) is 50.7 nM.
With `COc1cncc(-n2c(=O)[nH]c3cc(-c4ccccc4Cl)ccc3c2=O)c1C` [Example 141], in assay [1] (setting [4]), the IC50 was determined as 6650 nM. Further, the half-maximal effective concentration (EC50) in the assay on SARS-CoV-2-NLuc (setting [3]) came to 32200 nM.
In the same order, the values of `O=c1[nH]c2cc(-c3c(Cl)cccc3-c3cncc(C(F)(F)F)c3)ccc2c(=O)n1-c1cncc2ccccc12` [Example 206] are 42.4 nM and 20.6 nM.
For `Cc1cncc(-n2c(=O)[nH]c3cc(-c4ccccc4Cl)sc3c2=O)c1C` [Example 132], in that order: 9.12 nM and 27.4 nM.
In the same order, the values of `CN1CCOc2cc(-c3cccc(Cl)c3-c3ccc4c(=O)n(-c5cncc6ccccc56)c(=O)[nH]c4c3)ccc21` [Example 314] are 456 nM and 72.9 nM.
On to `N#Cc1ccccc1-c1cc(F)c2c(=O)n(-c3cncc4ccccc34)c(=O)[nH]c2c1` [Example 223], for which the IC50 in assay [1] (setting [4]) turned out to be 101 nM. Also, the half-maximal effective concentration (EC50) with SARS-CoV-2-NLuc (setting [5]) was determined as 414 nM.
Consider `COc1cc(-c2cc3[nH]c(=O)n(-c4cnnc(C)c4)c(=O)c3s2)c(Cl)cc1F` [Example 714], for which the IC50 in assay [1] (setting [2]) was more than 1000 nM. The EC50 with SARS-CoV-2-NLuc (setting [3]) is more than 1000 nM.
Turning to `COc1ccc2cncc(-n3c(=O)[nH]c4cc(-c5c(Cl)cccc5-c5cc(C)c6ncnn6c5)sc4c3=O)c2c1` [Example 562, 6-[2-chloro-6-(8-methyl-[1,2,4]triazolo[1,5-a]pyridin-6-yl)phenyl]-3-(6-methoxy-4-isoquinolyl)-1H-thieno[3,2-d]pyrimidine-2,4-dione], the IC50 in assay [1] (setting [2]) is less than 2.54 nM. Further, the EC50 in the assay on SARS-CoV-2-NLuc (setting [3]) was found to be 5.06 nM.
For `COc1ccc(Cl)c(-c2cc3[nH]c(=O)n(-c4cncc5ccc(N6CCS(=O)(=O)CC6)nc45)c(=O)c3s2)c1` [Example 458], in that order: 12.1 nM and 188 nM.
For the compound `O=c1[nH]c2cc(-c3cc(O)ccc3Cl)ccc2c(=O)n1-c1cncc2ccccc12` [Example 296], the 50% inhibitory concentration (IC50) in assay [1] (setting [4]) is 384 nM. Moreover, the concentration giving a half-maximal response (EC50) in the assay on SARS-CoV-2-NLuc (setting [3]) is 1430 nM.
With `COc1cc(-c2cc3c(s2)c(=O)n(-c2cccnn2)c(=O)n3CCC#N)c(Cl)cc1F` [Example 989], in assay [1] (setting [2]), the concentration for half-maximal inhibition (IC50) stood at 7.31 nM. Besides, the EC50 in the assay on SARS-CoV-2-NLuc (setting [3]) came to 19.6 nM.
On to `COc1cnc(Cl)c(-c2cc3c(s2)c(=O)n(-c2cncc(C)c2)c(=O)n3CCC#N)c1` [Example 885], for which, in assay [1] (setting [2]), the IC50 came to 7.57 nM. The EC50 with SARS-CoV-2-NLuc (setting [5]) is 22.9 nM.
As for `COc1cc(-c2cc3c(s2)c(=O)n(-c2cncc(Cl)c2C)c(=O)n3CCC#N)c(Cl)cc1F` (single isomer, unassigned) [Example 1033, 3-[6-(2-chloro-4-fluoro-5-methoxy-phenyl)-3-(5-chloro-4-methyl-3-pyridyl)-2,4-dioxo-thieno[3,2-d]pyrimidin-1-yl]propanenitrile], the IC50 in assay [1] (setting [2]) was 420 nM. For the same compound, the EC50 in the assay with SARS-CoV-2-NLuc (read-out: MPro EC50) amounted to 488 nM.
For the compound `COc1ccc(Cl)c(-c2cc3[nH]c(=O)n(-c4cncc(C)c4OCC(F)(F)F)c(=O)c3s2)c1` [Example 373], the IC50 in assay [1] (setting [4]) turned out to be 14.6 nM. The EC50 with SARS-CoV-2-NLuc (setting [5]) turned out to be 46.9 nM.
For the compound `CCOc1cc(-c2cc(OC)c(F)cc2Cl)cc2[nH]c(=O)n(-c3cncc4ccccc34)c(=O)c12` [Example 676], the IC50 in assay [1] (setting [2]) amounted to 31.6 nM. In addition, the EC50 in the assay with SARS-CoV-2-NLuc (setting [3]) was 25.3 nM.
Regarding `COc1cc(-c2cc3c(s2)c(=O)n(-c2cncc4[nH]nc(C)c24)c(=O)n3CCC#N)c(Cl)cc1F` (single isomer, unassigned) [Example 960, 3-(6-(2-chloro-4-fluoro-5-methoxyphenyl)-3-(3-methyl-1H-pyrazolo[3,4-c]pyridin-4-yl)-2,4-dioxo-3,4-dihydrothieno[3,2-d]pyrimidin-1(2H)-yl)propanenitrile], the IC50 in assay [1] (setting [2]) was found to be 79.6 nM. The EC50 in the assay with SARS-CoV-2-NLuc (read-out: MPro EC50) was found to be 163 nM.
Take `COc1cc(-c2cc3c(s2)c(=O)n(-c2cncc4cnn(C)c24)c(=O)n3CCc2nnn[nH]2)c(Cl)cc1F` [Example 1002, 6-(2-chloro-4-fluoro-5-methoxy-phenyl)-3-(1-methylpyrazolo[4,3-c]pyridin-7-yl)-1-[2-(1H-tetrazol-5-yl)ethyl]thieno[3,2-d]pyrimidine-2,4-dione]: the IC50 in assay [1] (setting [2]) turned out to be 33.8 nM. Also, in the assay on SARS-CoV-2-NLuc (read-out: MPro EC50), the half-maximal effective concentration (EC50) is 110 nM.

These data come from patent US20240116946A1 (Gilead Sciences, Inc., priority 2022, published 2024).
